Publication PMC11642016 (International Journal of Molecular Sciences, 2024)
Values joined by “and” are separate entries in the source; they are usually repeats but may differ in a detail not shown here. Identical values can stand only once.

Tested on: HEK293T CLPP^−/− cells
Experiment: CellTiter-Glo cell viability assay, HEK293T CLPP−/− (ClpP dependence);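 further: CellTiter-Glo luminescent signal read on a microplate reader once HEK293T CLPP−/− cells had been exposed to compounds for 72 h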
Details: 72 h; for HEK293T CLPP-/- Cell viability (% of controll): individual replicates

With `CNCC#Cc1cccc(CN2C(=O)C3=C(CCN(Cc4ccc(-n5cc(-c6ccccc6)nn5)cc4)C3)N3CCN=C23)c1` [38b] the “HEK293T CLPP-/- Cell viability (% of controll)” value (0.4 μM, dose–response, listed as CZT457, 0.4 µM) was 116 % of controll and 114 % of controll and 119 % of controll, the “HEK293T CLPP-/- Cell viability (% of controll)” value (0.6 μM, dose–response, listed as CZT457, 0.6 µM) was 112 % of controll (2×) and 110 % of controll and the “HEK293T CLPP-/- Cell viability (% of controll)” value (1.0 μM, dose–response, listed as CZT457, 1 µM) was 112 % of controll and 111 % of controll and 115 % of controll. For the same compound, the “HEK293T CLPP-/- Cell viability (% of controll)” value (1.6 μM, dose–response, listed as CZT457, 1.6 µM) was 107 % of controll and 101 % of controll and 103 % of controll, the “HEK293T CLPP-/- Cell viability (% of controll)” value (2.5 μM, dose–response, listed as CZT457, 2.5 µM) was 25 % of controll and 33 % of controll and 32 % of controll and 13 % of controll and the “HEK293T CLPP-/- Cell viability (% of controll)” value (4.0 μM, dose–response, listed as CZT457, 4 µM) was 1 % of controll and 0 % of controll. The “HEK293T CLPP-/- Cell viability (% of controll)” value (6.4 μM, dose–response) was 0 % of controll, the “HEK293T CLPP-/- Cell viability (% of controll)” value (16.25 μM, dose–response) was 0 % of controll and the “HEK293T CLPP-/- Cell viability (% of controll)” value (26 μM, dose–response) was 0 % of controll. The IC50 (Homo sapiens, HEK-293T, read-out: IC50 (µM) HEK293T CLPP^−/−) was 2.1 ± 0.03 µM and the “effect on the viability of HEK293T CLPP^−/− cells” value (dose–response, compared with HEK293T WT) was “maintained”.
